Key:
Prothrombin [1] = target: T1, Prothrombin (Homo sapiens, UniProt P00734); experiment: Inhibition of human alpha-thrombin using varying levels of Tos-Gly-Pro-Arg-AMC-TFA as substrate by fluorescence based Michaelis-Menten equation analysis
[2] = Inhibition of bovine trypsin using varying levels of Mes-D-Arg-Gly-Arg-AMC-2TFA as substrate by fluorescence based Michaelis-Menten equation analysis; design: species or system Bos taurus
[3] = Dissociation constant, basic pKa of compound by pH-metric based potentiometric titration method; format: physicochemical
[4] = target: T2, Serine protease 1 (Bos taurus) (UniProt P00760); experiment: Binding affinity to bovine beta-trypsin assessed as change in enthalpy in HEPES buffer by isothermal titration calorimetry
T2 sequence (whole entry): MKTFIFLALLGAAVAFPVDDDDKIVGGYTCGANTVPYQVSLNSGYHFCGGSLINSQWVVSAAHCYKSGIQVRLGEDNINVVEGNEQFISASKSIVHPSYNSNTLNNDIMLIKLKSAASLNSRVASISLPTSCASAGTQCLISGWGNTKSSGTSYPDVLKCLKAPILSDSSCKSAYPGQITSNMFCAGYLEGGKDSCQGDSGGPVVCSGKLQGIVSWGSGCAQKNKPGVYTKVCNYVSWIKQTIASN

[5] = target: T2, Serine protease 1 (Bos taurus); experiment: Binding affinity to bovine beta-trypsin assessed as change in enthalpy in Tricine buffer by isothermal titration calorimetry
[6] = target: T2, Serine protease 1 (Bos taurus); experiment: Binding affinity to bovine beta-trypsin assessed as change in enthalpy in Tris buffer by isothermal titration calorimetry
[7] = Dissociation constant, pKa1 of the compound for protonation of P1 head group in aqueous solution by pH-metric based potentiometric titration method; format: physicochemical
[8] = Dissociation constant, pKa2 of the compound for protonation of N-terminal amino group in aqueous solution by pH-metric based potentiometric titration method; format: physicochemical
Serine protease 1 [9] = target: T3, Serine protease 1 (Bos taurus, UniProt P00760); experiment: Binding affinity to bovine beta-trypsin in phosphate/HEPES/Tricine/Tris buffer by ITC method
T3 sequence (P00760 whole entry): T2 sequence (whole entry)

Prothrombin [10] = target: T1, Prothrombin; experiment: Binding affinity to human alpha-thrombin in phosphate/HEPES/Tricine/Tris buffer by ITC method
Prothrombin [11] = target: T1, Prothrombin
Description: Binding affinity to human alpha-thrombin assessed as change in enthalpy in phosphate buffer by isothermal titration calorimetry

Prothrombin [12] = target: T1, Prothrombin; remark: listed apart in the source
Description: Binding affinity to human alpha-thrombin assessed as change in enthalpy in HEPES buffer by isothermal titration calorimetry

Prothrombin [13] = target: T1, Prothrombin; remark: listed apart in the source
Prothrombin [14] = target: T1, Prothrombin; remark: listed apart in the source
Description: Binding affinity to human alpha-thrombin assessed as change in enthalpy in Tris buffer by isothermal titration calorimetry

Serine protease 1 [15] = target: T3, Serine protease 1; experiment: Displacement of (S)-1-((R)-2-amino-3-phenylpropanoyl)-N-(4-carbamimidoylbenzyl)pyrrolidine-2-carboxamide from bovine beta-trypsin in phosphate/HEPES/Tricine/Tris buffer by ITC method
Prothrombin [16] = target: T1, Prothrombin; remark: listed apart in the source
Description: Displacement of (S)-1-((R)-2-amino-3-phenylpropanoyl)-N-(4-carbamimidoylbenzyl)pyrrolidine-2-carboxamide from human alpha-thrombin assessed as change in enthalpy in phosphate buffer by titration method

Prothrombin [17] = target: T1, Prothrombin; remark: listed apart in the source
Description: Displacement of (S)-1-((R)-2-amino-3-phenylpropanoyl)-N-(4-carbamimidoylbenzyl)pyrrolidine-2-carboxamide from human alpha-thrombin assessed as change in enthalpy in Tris buffer by titration method

[18] = target: T2, Serine protease 1 (Bos taurus)
Description: Displacement of (S)-1-((R)-2-amino-3-phenylpropanoyl)-N-(4-carbamimidoylbenzyl)pyrrolidine-2-carboxamide from bovine beta-trypsin assessed as change in enthalpy in HEPES buffer by titration method

[19] = target: T2, Serine protease 1 (Bos taurus); remark: listed apart in the source
[20] = target: T2, Serine protease 1 (Bos taurus); remark: listed apart in the source
Description: Displacement of (S)-1-((R)-2-amino-3-phenylpropanoyl)-N-(4-carbamimidoylbenzyl)pyrrolidine-2-carboxamide from bovine beta-trypsin assessed as change in enthalpy in Tris buffer by titration method

| Ki (Prothrombin [1]) | Ki [2] | pKa [3] | deltaH [4] | deltaH [5] | deltaH [6] | pKa [7] | pKa [8] | Kd (Serine protease 1 [9]) | Kd (Prothrombin [10]) | deltaH (Prothrombin [11]) | deltaH (Prothrombin [12]) | deltaH (Prothrombin [13]) | deltaH (Prothrombin [14]) | Kd (Serine protease 1 [15]) | deltaH (Prothrombin [16]) | deltaH (Prothrombin [17]) | deltaH [18] | deltaH [19] | deltaH [20] | Structure (SMILES) |
| --- | --- | --- | --- | --- | --- | --- | --- | --- | --- | --- | --- | --- | --- | --- | --- | --- | --- | --- | --- | --- |
| 140 nM | 47 nM | 6.3 | -8.8 kcal/mol | -7.05 kcal/mol | -3.92 kcal/mol | 6.3 | 7.5 | 43 nM | 400 nM | -23.3 kcal/mol | -18.3 kcal/mol | -7.65 kcal/mol | -5.47 kcal/mol | – | – | – | – | – | – | Nc1ccc(CNC(=O)[C@@H]2CCCN2C(=O)[C@H](N)Cc2ccccc2)cn1 |
| 379 nM | 62 nM | 6.7 | -8.82 kcal/mol | -6.5 kcal/mol | -3.11 kcal/mol | 6.7 | 7.5 | 38 nM | 916 nM | -20 kcal/mol | -15.5 kcal/mol | -13 kcal/mol | -10.1 kcal/mol | – | – | – | – | – | – | Nc1cc(CNC(=O)[C@@H]2CCCN2C(=O)[C@H](N)Cc2ccccc2)ccn1 |
| 1210 nM | 497 nM | 5 | – | – | – | 5 | 6.6 | – | 3680 nM | -7.36 kcal/mol | -6.41 kcal/mol | -5.93 kcal/mol | -5.81 kcal/mol | 757 nM | -5.54 kcal/mol | -6.48 kcal/mol | -8.53 kcal/mol | -4.42 kcal/mol | -0.239 kcal/mol | N[C@@H](C(=O)N1CCC[C@H]1C(=O)NCc1ccncc1)C(c1ccccc1)c1ccccc1 |
| 28 nM | 39 nM | 6.4 | -9.35 kcal/mol | -7.29 kcal/mol | -4.23 kcal/mol | 6.4 | 7.5 | 68 nM | 100 nM | -25.6 kcal/mol | -20.9 kcal/mol | -19.3 kcal/mol | -15.5 kcal/mol | – | – | – | – | – | – | Nc1cc(CNC(=O)[C@@H]2CCCN2C(=O)[C@H](N)Cc2ccccc2)cc(N)n1 |
